The source of these data is publication PMC5862892, “Near-native, site-specific and purification-free protein labeling for quantitative protein interaction analysis by MicroScale Thermophoresis” (Scientific Reports, 2018).

Assay [1] has as its target His-tag. More on the design: method as in PMID 16028931. The settings on record: read-out: molecular binding affinity of Ni(II)-NTA for His-tag; cited from earlier work.
Assay [2] has as its system mNeonGreen-His6. The experiment in a line: MST: mNeonGreen-His6 negative control against SB203580 in HeLa cell lysate. Type of assay: binding.
The target in assay [3] is pUL50 (Human cytomegalovirus) (UniProt P16791). Description: ITC. The following applies: cited from earlier work.

“Also recorded” adds a separate entry of the source.

Sequence of UniProt P16791 (P16791 whole entry): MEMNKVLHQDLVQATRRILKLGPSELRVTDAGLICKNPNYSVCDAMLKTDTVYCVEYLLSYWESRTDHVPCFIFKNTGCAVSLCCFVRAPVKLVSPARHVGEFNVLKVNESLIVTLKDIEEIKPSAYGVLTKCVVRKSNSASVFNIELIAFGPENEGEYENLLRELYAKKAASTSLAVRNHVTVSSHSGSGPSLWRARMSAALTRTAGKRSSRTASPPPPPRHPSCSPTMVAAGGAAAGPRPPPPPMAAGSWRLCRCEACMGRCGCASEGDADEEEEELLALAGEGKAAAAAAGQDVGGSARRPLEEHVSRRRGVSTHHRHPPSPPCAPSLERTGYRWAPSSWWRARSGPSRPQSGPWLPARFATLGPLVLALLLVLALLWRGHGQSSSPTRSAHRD

On to `O=C(O)CN(CC(=O)O)CC(=O)O` [NTA, nitrilotriacetic acid], for which the Kd in assay [1] is about 10 µM.
On to `C[S+]([O-])c1ccc(-c2nc(-c3ccncc3)c(-c3ccc(F)cc3)[nH]2)cc1` (stereo not drawn) [SB203580], for which the “binding to RED-tris-NTA labeled mNeonGreen-His6 (p38α-free negative control)” value in assay [2] is “no binding could be detected; also recorded: did not yield a binding curve”.
Consider pUL53 (from UniProt P16794), for which the Kd in assay [3] was 0.29 µM.
